Results: publication PMC11464467 (Journal of Advanced Research, 2023)

Tests used:
[1] = test system: striatal DA; experiment: HPLC-ECD striatal DA in MPTP mice; format: in vivo; conditions: MPTP-treated mice, selegiline 10 mg/kg
[2] = test system: MPTP-induced mice PD model; experiment: Footprint test in MPTP-induced mice PD model; format: in vivo; conditions: selegiline 10 mg/kg orally twice daily 14 days; not statistically significant

C#CCN(C)[C@H](C)Cc1ccccc1 [selegiline]
Increase in dopamine levels [1]: 15.35%
Locomotion impairments in footprint test (time to cross corridor, stride length) [2]: attenuated these locomotion impairments
